Measured values as given in ChEMBL document CHEMBL3639238, “Hybrid cholinesterase inhibitors” (2014).

Tests used:
Acetylcholinesterase = Acetylcholinesterase (Homo sapiens, UniProt P22303); experiment: (§1) Inhibition Assay: The biological activity of the compounds of general formula (I) towards the cholinesterase inhibition was evaluated using Ellman's method (Ellman, G. L.; Courtney, K. D.; Anders, B.; Featherstone, R. M. Biochem. Pharmacol. 1961, 7, 88-95).This method of evaluation of the cholinesterase inhibitors activity is based on the fact that acetyl/butyrylcholinesterase interacts with the inhibitor, which prevents the acetyl/butyrylcholine hydrolysis. The inhibitor causes the enzyme activity drop which is dependent on the inhibitor concentration. The enzyme unbound with the inhibitor is able to hydrolyze acetyl/butyrylthiocholine (ASCh/BSCh). The amount of the hydrolyzed ASCh/BSCh is measured indirectly, by quantification of the product of its reaction with DTNB (5,5â²-dithio-bis-2-nitrobenzoic acid). Ellman's method relies therefore on the spectrophotometric quantification of product of the reaction between […] and DTNB.
Sequence of Acetylcholinesterase (P22303 whole entry): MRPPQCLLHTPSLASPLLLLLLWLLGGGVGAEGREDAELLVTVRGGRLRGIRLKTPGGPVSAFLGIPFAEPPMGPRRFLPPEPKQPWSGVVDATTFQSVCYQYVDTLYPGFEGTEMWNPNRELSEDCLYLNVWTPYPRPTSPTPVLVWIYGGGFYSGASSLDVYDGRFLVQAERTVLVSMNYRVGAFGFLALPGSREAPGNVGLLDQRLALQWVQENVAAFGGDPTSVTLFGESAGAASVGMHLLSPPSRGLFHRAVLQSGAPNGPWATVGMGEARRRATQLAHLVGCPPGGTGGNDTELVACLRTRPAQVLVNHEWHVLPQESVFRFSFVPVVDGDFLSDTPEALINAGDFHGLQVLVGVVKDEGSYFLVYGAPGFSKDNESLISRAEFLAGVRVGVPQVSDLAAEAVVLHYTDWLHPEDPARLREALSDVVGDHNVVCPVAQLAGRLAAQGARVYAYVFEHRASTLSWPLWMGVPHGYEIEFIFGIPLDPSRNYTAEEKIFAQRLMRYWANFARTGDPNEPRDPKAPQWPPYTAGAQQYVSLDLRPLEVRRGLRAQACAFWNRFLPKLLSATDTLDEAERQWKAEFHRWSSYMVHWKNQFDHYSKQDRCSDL

Cholinesterase = Cholinesterase (Homo sapiens, UniProt P06276); experiment: as §1
Sequence of Cholinesterase (P06276 whole entry): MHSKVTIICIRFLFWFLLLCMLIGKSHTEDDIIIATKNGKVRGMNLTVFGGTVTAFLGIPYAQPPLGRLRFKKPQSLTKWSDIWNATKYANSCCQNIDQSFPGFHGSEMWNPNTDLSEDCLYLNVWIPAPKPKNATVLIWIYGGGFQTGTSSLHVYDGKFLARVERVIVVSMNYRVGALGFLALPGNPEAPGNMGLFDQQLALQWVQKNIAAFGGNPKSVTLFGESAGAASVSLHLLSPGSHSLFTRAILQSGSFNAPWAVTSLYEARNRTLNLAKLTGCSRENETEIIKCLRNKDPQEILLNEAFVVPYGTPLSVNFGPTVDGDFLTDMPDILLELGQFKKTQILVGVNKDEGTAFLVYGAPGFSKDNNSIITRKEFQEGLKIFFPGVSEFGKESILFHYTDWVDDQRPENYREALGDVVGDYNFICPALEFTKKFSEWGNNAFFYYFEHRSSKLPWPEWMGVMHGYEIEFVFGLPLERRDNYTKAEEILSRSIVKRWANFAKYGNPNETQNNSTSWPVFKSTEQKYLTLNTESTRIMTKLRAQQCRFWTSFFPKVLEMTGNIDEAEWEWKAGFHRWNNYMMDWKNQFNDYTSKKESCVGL

SMILES	IC50 (Acetylcholinesterase) [nM]	IC50 (Cholinesterase) [nM]
CC(=O)NCCc1c[nH]c2ccc(OC(=O)NCCCCCCCNc3c4c(nc5cc(Cl)ccc35)CCCC4)cc12	7.7	0.38
CC(=O)NCCc1c[nH]c2ccc(OC(=O)NCCNc3c4c(nc5cc(Cl)ccc35)CCCC4)cc12	20.1	34.5
CC(=O)NCCc1c[nH]c2ccc(OC(=O)NCCCCCCCNc3c4c(nc5ccc(Cl)cc35)CCCC4)cc12	39.9	0.88
CC(=O)NCCc1c[nH]c2ccc(OC(=O)NCCNc3c4c(nc5ccc(Cl)cc35)CCCC4)cc12	3280	8.2
CC(=O)NCCc1c[nH]c2ccc(OC(=O)NCCCCCCCCCCNc3c4c(nc5cc(Cl)ccc35)CCCC4)cc12	8.1	1.2
CC(=O)NCCc1c[nH]c2ccc(OC(=O)NCCCCCCCCCCCCNc3c4c(nc5cc(Cl)ccc35)CCCC4)cc12	25.6	1.31
